Patent US7119077B1, “Multimeric forms of members of the steroid/thyroid superfamily of receptors with the ultraspiracle receptor” (The Salk Institute for Biological Studies, priority 1990, dated 2006)

Each substance was assayed against EcR/usp complex (Drosophila melanogaster, UniProt P20153+P34021). Conditions: cold oligonucleotide competitor, in vitro translated EcR and usp.
Chain of EcR/usp complex (P34021 whole entry): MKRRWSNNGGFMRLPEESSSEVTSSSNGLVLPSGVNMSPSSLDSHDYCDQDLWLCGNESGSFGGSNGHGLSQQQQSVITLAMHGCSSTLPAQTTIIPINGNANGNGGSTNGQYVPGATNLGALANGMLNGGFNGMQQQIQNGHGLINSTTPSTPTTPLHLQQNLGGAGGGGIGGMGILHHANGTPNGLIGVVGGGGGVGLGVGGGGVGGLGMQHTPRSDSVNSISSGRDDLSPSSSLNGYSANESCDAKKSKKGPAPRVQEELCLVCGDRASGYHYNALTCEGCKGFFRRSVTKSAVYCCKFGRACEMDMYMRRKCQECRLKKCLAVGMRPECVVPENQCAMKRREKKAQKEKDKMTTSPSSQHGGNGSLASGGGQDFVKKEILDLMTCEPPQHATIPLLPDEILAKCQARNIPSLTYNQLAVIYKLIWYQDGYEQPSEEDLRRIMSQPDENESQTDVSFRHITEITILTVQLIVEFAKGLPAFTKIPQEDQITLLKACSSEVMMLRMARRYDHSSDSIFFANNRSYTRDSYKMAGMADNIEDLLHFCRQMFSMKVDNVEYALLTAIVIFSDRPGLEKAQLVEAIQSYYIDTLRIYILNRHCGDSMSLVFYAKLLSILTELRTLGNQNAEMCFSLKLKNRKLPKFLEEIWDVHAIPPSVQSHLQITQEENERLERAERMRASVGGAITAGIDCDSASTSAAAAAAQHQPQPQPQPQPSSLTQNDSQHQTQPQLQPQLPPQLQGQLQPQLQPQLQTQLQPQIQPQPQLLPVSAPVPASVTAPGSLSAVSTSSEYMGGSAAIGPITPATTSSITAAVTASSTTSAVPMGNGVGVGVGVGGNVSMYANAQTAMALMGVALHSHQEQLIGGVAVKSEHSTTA
Chain of EcR/usp complex (P20153 with tags, fused parts or gaps limits assumed): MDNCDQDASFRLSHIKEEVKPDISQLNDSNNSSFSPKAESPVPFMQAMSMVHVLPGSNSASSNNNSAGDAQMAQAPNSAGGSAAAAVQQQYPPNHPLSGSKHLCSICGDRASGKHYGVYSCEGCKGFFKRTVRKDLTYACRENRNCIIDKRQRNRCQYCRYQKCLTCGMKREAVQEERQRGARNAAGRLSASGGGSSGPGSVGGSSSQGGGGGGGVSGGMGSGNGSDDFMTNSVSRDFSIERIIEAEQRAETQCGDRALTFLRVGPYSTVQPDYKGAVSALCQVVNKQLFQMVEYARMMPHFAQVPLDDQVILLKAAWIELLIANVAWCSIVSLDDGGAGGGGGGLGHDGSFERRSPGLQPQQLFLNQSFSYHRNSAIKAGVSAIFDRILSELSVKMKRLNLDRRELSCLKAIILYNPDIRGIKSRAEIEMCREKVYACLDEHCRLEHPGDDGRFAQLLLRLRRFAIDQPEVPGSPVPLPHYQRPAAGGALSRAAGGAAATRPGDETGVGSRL
Description: To generate protein in vitro, suitable plasmids for human (h)RARα, hTRB, hVDR, rat PPAR, Drosophila (d)usp and dEcR were linearized with restriction enzyme 3′ of the termination codon. The linearized templates were used for in vitro transcription and then translation using rabbit reticulocyte lysate according to manufacturer's instruction (Promega). […] Schneider cell extracts were prepared following the procedures in Damm et al., Nature Vol. 339:593–597 (1989) and Umesono et al. (1991), supra. The extraction buffer contained 0.4 M KCl in 20 mM HEPES pH 7.5, 20% glycerol, 2 mM DTT and 1 mM PMSF.
For gel mobility shift assay, proteins were incubated with binding buffer, which contained 100 mM KCl, 7.5% glycerol, 20 mM HEPES pH 7.5, 2 mM DTT and 0.1% NP-40, on ice for 20 minutes in the presence of 2 μg of nonspecific competitor poly dI-dC and other oligo competitors. Then approximately 1 ng of ^32P-dCTP probe, which was labelled to specific activity about 1–5×10^8 cpm/μg by fill-in reaction with Klenow fragments, was added to the reaction and incubated at room temperature for 20 minutes. […] The reaction was then loaded into 5% non-denaturing polyacrylamide gel in 0.5×TBE running buffer [1×TBE comprises 0.089 M Tris borate, 0.089 M boric acid and 0.002 M EDTA]. After electrophoresis, the gel was dried for autoradiography.
The ability of EcR/usp complex to recognize this EcRE was examined.

Substance | competition of EcR/usp binding to hsp27-EcRE
15N-EcRE: back mutation of hsp27-EcRE which regenerated the palindrome motif (DNA ATGAAGTGCATTGAACCCGCTCGA; further chemistry not given here) | effective competition
Eip28/29-EcRE: EcRE derived from the Drosophila Eip28/29 gene, composite element with direct repeat and degenerated palindromic motif (DNA TAAAGGATCTTGACCCCAATGAACTTCTTA; further chemistry not given here) | can effectively compete
11N-EcRE: mutant hsp27-EcRE, two nucleotides at the ends of the palindrome and the flanking sequence changed (DNA ATGCTGTGCATTGAACGTGCTCGA; further chemistry not given here) | did not compete
